# Reference: patent US9346812B2, “Substituted pyrrolopyrimidine compounds, compositions thereof, and methods of treatment therewith” (Signal Pharmaceutical LLC, priority 2013, dated 2016)
# System: CAL51 cell proliferation
# Test: Cell Titer Glo Proliferation Assay (CAL51)
# Assay type: cell-based, human
# Settings: Homo sapiens, CAL-51; CAL51 cell proliferation, 72 h, Cell Titer Glo luminescence; read-out: Act. Level
# Outline: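 Viability is measured by CellTiter-Glo luminescence after 72 h of compound exposure. CAL51 cells were seeded in growth medium with 10% FBS and 2 mM glutamine, cultured overnight, then dosed with compound dilutions, vehicle held at 0.2% DMSO.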
row,SMILES,IC50
1,"CNC(=O)c1ccc(Nc2nc(OC3CCCC3)c3c(-c4ccc(NC(C)=O)cc4)c[nH]c3n2)c(OC)c1 [Example 62, 4-(5-(4-acetamidophenyl)-4-(cyclopentyloxy)-7H-pyrrolo[2,3-d]pyrimidin-2-ylamino)-3-methoxy-N-methylbenzamide]",< 0.1 µM
2,"Cc1nc2ccc(-c3c[nH]c4nc(Nc5ccc(C(=O)N6CCNCC6)cc5C)nc(NC5CCOCC5)c34)cc2o1 [Example 74, (3-methyl-4-(5-(2-methylbenzo[d]oxazol-6-yl)-4-(tetrahydro-2H-pyran-4-ylamino)-7H-pyrrolo [2,3-d]pyrimidin-2-ylamino)phenyl) (piperazin-1-yl)methanone]",0.1 to 0.4 µM
3,"COc1nc(Nc2ccc3[nH]ncc3c2)nc2[nH]cc(-c3ccc4nc(C)oc4c3)c12 [Example 87, N-(1H-indazol-5-yl)-4-methoxy-5-(2-methylbenzo[d]oxazol-6-yl)-7H-pyrrolo[2,3-d]pyrimidin-2-amine]",0.1 to 0.4 µM
4,"CNC(=O)c1ccc(Nc2nc(OC3CCCC3)c3c(-c4ccc5nc(N)[nH]c5c4)c[nH]c3n2)c(OC)c1 [Example 110, 4-(5-(2-amino-1H-benzo[d]imidazol-6-yl)-4-(cyclopentyloxy)-7H-pyrrolo[2,3-d]pyrimidin-2-ylamino)-3-methoxy-N-methylbenzamide]",< 0.1 µM
5,"CNC(=O)c1ccc(Nc2nc(OC3CCCC3)c3c(-c4ccc(C(C)(C)O)cc4)c[nH]c3n2)c(OC)c1 [Example 49, 4-(4-(cyclopentyloxy)-5-(4-(2-hydroxypropan-2-yl)phenyl)-7H-pyrrolo[2,3-d]pyrimidin-2-ylamino)-3-methoxy-N-methylbenzamide]",0.1 to 0.4 µM
6,"Cc1cc(C(=O)N(C)C)ccc1Nc1nc(OC2CCOCC2)c2c(-c3cccc(S(C)(=O)=O)c3)c[nH]c2n1 [Example 105, N,N,3-trimethyl-4-(5-(3-(methylsulfonyl)phenyl)-4-(tetrahydro-2H-pyran-4-yloxy)-7H-pyrrolo[2,3-d]pyrimidin-2-ylamino)benzamide]",< 0.1 µM
7,"COc1cc(C(=O)N2CCC2)ccc1Nc1nc(OC2CCCC2)c2c(-c3ccc4nc(C)oc4c3)c[nH]c2n1 [Example 241, azetidin-1-yl(4-(4-(cyclopentyloxy)-5-(2-methylbenzo[d]oxazol-6-yl)-7H-pyrrolo[2,3-d]pyrimidin-2-ylamino)-3-methoxyphenyl) methanone]",< 0.1 µM
8,"Cc1cc(-c2c[nH]c3nc(Nc4ccc(C(=O)N(C)C)cc4C)nc(OC4CCOCC4)c23)ccn1 [Example 117, N,N,3-trimethyl-4-(5-(2-methyl-pyridin-4-yl)-4-(tetrahydro-2H-pyran-4-yloxy)-7H-pyrrolo[2,3-d]pyrimidin-2-ylamino)benzamide]",< 0.1 µM
9,"COc1cc(C(=O)N(C)C)ccc1Nc1nc(O[C@@H]2CCOC2)c2c(-c3ccc4nc(C)oc4c3)c[nH]c2n1 [Example 222, (R)-3-methoxy-N,N-dimethyl-4-(5-(2-methylbenzo[d]oxazol-6-yl)-4-(tetrahydrofuran-3-yloxy)-7H-pyrrolo[2,3-d]pyrimidin-2-ylamino)benzamide]",< 0.1 µM
10,"CNC(=O)c1ccc(Nc2nc(OC)c3c(-c4cn[nH]c4)c[nH]c3n2)c(OC)c1 [Example 129, 3-methoxy-4-(4-methoxy-5-(1H-pyrazol-4-yl)-7H-pyrrolo[2,3-d]pyrimidin-2-ylamino)-N-methylbenzamide]",0.1 to 0.4 µM
11,"COc1nc(Nc2ccc(C(=O)N(C)C)cc2C)nc2[nH]cc(-c3ccncc3)c12 [Example 89, 4-(4-methoxy-5-(pyridin-4-yl)-7H-pyrrolo[2,3-d]pyrimidin-2-ylamino)-N,N,3-trimethylbenzamide]",0.1 to 0.4 µM
12,"CNC(=O)c1ccc(Nc2nc(OC)c3c(-c4ccncc4)c[nH]c3n2)c(OC)c1 [Example 190, 3-methoxy-4-(4-methoxy-5-(pyridin-4-yl)-7H-pyrrolo[2,3-d]pyrimidin-2-ylamino)-N-methylbenzamide]",< 0.1 µM
13,"COc1cc(C(=O)NC2COC2)ccc1Nc1nc(OC2CCCC2)c2c(-c3cnn(C)c3)c[nH]c2n1 [Example 303, 4-(4-(cyclopentyloxy)-5-(1-methyl-1H-pyrazol-4-yl)-7H-pyrrolo[2,3-d]pyrimidin-2-ylamino)-3-methoxy-N-(oxetan-3-yl)benzamide]",< 0.1 µM
14,"Cc1cc(C(=O)N(C)C)ccc1Nc1nc(OC2CCOCC2)c2c(-c3cncnc3)c[nH]c2n1 [Example 107, N,N,3-trimethyl-4-(5-(pyrimidin-5-yl)-4-(tetrahydro-2H-pyran-4-yloxy)-7H-pyrrolo[2,3-d]pyrimidin-2-ylamino)benzamide]",0.1 to 0.4 µM
15,"Cc1cc(C(=O)N(C)C)ccc1Nc1nc(O[C@H]2CCOC2)c2c(-c3cnn(C)c3)c[nH]c2n1 [Example 164, (S)-N,N,3-trimethyl-4-(5-(1-methyl-1H-pyrazol-4-yl)-4-(tetrahydrofuran-3-yloxy)-7H-pyrrolo[2,3-d]pyrimidin-2-ylamino)benzamide]",< 0.1 µM
16,"CNC(=O)c1ccc(Nc2nc(OC3CCOCC3)c3c(-c4ccn(C)n4)c[nH]c3n2)c(OC)c1 [Example 163, 3-methoxy-N-methyl-4-(5-(1-methyl-1H-pyrazol-3-yl)-4-(tetrahydro-2H-pyran-4-yloxy)-7H-pyrrolo[2,3-d]pyrimidin-2-ylamino)benzamide]",< 0.1 µM
17,"Cc1cc(C(=O)N(C)C)ccc1Nc1nc(OC2CCOCC2)c2c(-c3ccc4nc(N)[nH]c4c3)c[nH]c2n1 [Example 116, 4-(5-(2-amino-1H-benzo[d]imidazol-6-yl)-4-(tetrahydro-2H-pyran-4-yloxy)-7H-pyrrolo[2,3-d]pyrimidin-2-ylamino)-N,N,3-trimethylbenzamide]",< 0.1 µM
18,"Cc1nc2ccc(-c3c[nH]c4nc(Nc5ccc(C(=O)N(C)C)cc5C)nc(O[C@@H]5CCOC5)c34)cc2o1 [Example 99, (R)-N,N,3-trimethyl-4-(5-(2-methylbenzo[d]oxazol-6-yl)-4-(tetrahydrofuran-3-yloxy)-7H-pyrrolo[2,3-d]pyrimidin-2-ylamino)benzamide]",< 0.1 µM
19,"CCOc1ccc(-c2c[nH]c3nc(Nc4ccc(C(=O)NC)cc4OC)nc(OC4CCOCC4)c23)cn1 [Example 102, 4-(5-(6-ethoxypyridin-3-yl)-4-(tetrahydro-2H-pyran-4-yloxy)-7H-pyrrolo[2,3-d]pyrimidin-2-ylamino)-3-methoxy-N-methylbenzamide]",0.1 to 0.4 µM
20,"COc1cc(-n2cccn2)ccc1Nc1nc(OC2CCCC2)c2c(-c3ccc4nc(C)oc4c3)c[nH]c2n1 [Example 228, 4-(cyclopentyloxy)-N-(2-methoxy-4-(1H-pyrazol-1-yl)phenyl)-5-(2-methylbenzo[d]oxazol-6-yl)-7H-pyrrolo[2,3-d]pyrimidin-2-amine]",0.1 to 0.4 µM
21,"CNC(=O)c1cc(C)c(Nc2nc(OC3CCCC3)c3c(-c4ccc5nc(C)oc5c4)c[nH]c3n2)c(OC)c1 [Example 298, 4-(4-(cyclopentyloxy)-5-(2-methylbenzo[d]oxazol-6-yl)-7H-pyrrolo[2,3-d]pyrimidin-2-ylamino)-3-methoxy-N,5-dimethylbenzamide]",1 to 10 µM
22,"CNC(=O)c1ccc(Nc2nc(NC3CCOCC3)c3c(-c4ccc(O)cc4)c[nH]c3n2)c(OC)c1 [Example 40, 4-(5-(4-hydroxyphenyl)-4-(tetrahydro-2H-pyran-4-ylamino)-7H-pyrrolo[2,3-d]pyrimidin-2-ylamino)-3-methoxy-N-methylbenzamide]",< 0.1 µM
23,"CNC(=O)c1ccc(Nc2nc(OC3CCOCC3)c3c(-c4cn[nH]c4)c[nH]c3n2)c(OC)c1 [Example 122, 4-(5-(1H-pyrazol-4-yl)-4-(tetrahydro-2H-pyran-4-yloxy)-7H-pyrrolo[2,3-d]pyrimidin-2-ylamino)-3-methoxy-N-methylbenzamide]",< 0.1 µM
24,"CNC(=O)c1ccc(Nc2nc(OC3CCCC3)c3c(-c4ccc5[nH]ccc5c4)c[nH]c3n2)c(OC)c1 [Example 81, 4-(4-(cyclopentyloxy)-5-(1H-indol-5-yl)-7H-pyrrolo[2,3-d]pyrimidin-2-ylamino)-3-methoxy-N-methylbenzamide]",0.4 to 1 µM
25,"CNC(=O)c1ccc(Nc2nc(OC3CCCC3)c3c(-c4ccc(-c5nnc[nH]5)cc4)c[nH]c3n2)c(OC)c1 [Example 28, 4-(5-(4-(4H-1,2,4-triazol-3-yl)phenyl)-4-(cyclopentyloxy)-7H-pyrrolo[2,3-d]pyrimidin-2-ylamino)-3-methoxy-N-methylbenzamide]",< 0.1 µM
26,"CNC(=O)c1ccc(Nc2nc(OC3CCCC3)c3c(-c4ccc(NC(C)=O)c(O)c4)c[nH]c3n2)c(OC)c1 [Example 290, 4-(5-(4-acetamido-3-hydroxy-phenyl)-4-(cyclopentyloxy)-7H-pyrrolo[2,3-d]pyrimidin-2-ylamino)-3-methoxy-N-methylbenzamide]",0.1 to 0.4 µM
27,"CNC(=O)c1ccc(Nc2nc(OC3CCOCC3)c3c(-c4cc5oc(C)nc5cc4C)c[nH]c3n2)c(OC)c1 [Example 136, 4-(5-(2,5-dimethylbenzo[d]oxazol-6-yl)-4-(tetrahydro-2H-pyran-4-yloxy)-7H-pyrrolo[2,3-d]pyrimidin-2-ylamino)-3-methoxy-N-methylbenzamide]",1 to 10 µM
28,"CNC(=O)c1ccc(Nc2nc(O[C@H]3CCOC3)c3c(-c4ccc5nc(C)oc5c4)c[nH]c3n2)c(C(C)C)c1 [Example 209, (S)-3-isopropyl-N-methyl-4-(5-(2-methylbenzo[d]oxazol-6-yl)-4-(tetrahydrofuran-3-yloxy)-7H-pyrrolo[2,3-d]pyrimidin-2-ylamino)benzamide]",1 to 10 µM
29,"CNC(=O)c1ccc(Nc2nc(OC3CCOCC3)c3c(-c4ccc(OC)nc4)c[nH]c3n2)c(OC)c1 [Example 119, 3-methoxy-4-(5-(6-methoxypyridin-3-yl)-4-(tetrahydro-2H-pyran-4-yloxy)-7H-pyrrolo[2,3-d]pyrimidin-2-ylamino)-N-methylbenzamide]",< 0.1 µM
30,"CC[C@H](C)Oc1nc(Nc2ccc(C(=O)NCCO)cc2OC)nc2[nH]cc(-c3cnn(C)c3)c12 [Example 286, (S)-4-(4-sec-butoxy-5-(1-methyl-1H-pyrazol-4-yl)-7H-pyrrolo [2,3-d]pyrimidin-2-ylamino)-N-(2-hydroxyethyl)-3-methoxybenzamide]",0.1 to 0.4 µM
